{"source": "patent US7744929B2", "about": "“Botanical drug compositions for treatments of liver and immunological disorders” (priority 2003, dated 2010)", "origin": "cited, not measured here", "tested_on": "HCV"}
{"smiles": "NC(=O)c1ncn([C@@H]2O[C@H](CO)[C@@H](O)[C@H]2O)n1", "note": "[ribavirin]", "values": [{"measurement": "increase of the sustained response rate", "setting": "ribavirin added to interferon", "result": "two- to three fold"}, {"measurement": "effect on HCV", "setting": "ribavirin by itself", "result": "little effect"}]}
